Laboratory results as given in US20260167829A1, “USES OF DIAZIRINES” (Nanyang Technological University, priority 2022, published 2026).
“Also recorded” adds a separate entry of the source.

Assays:
[1] = UV/VIS spectroscopy, molar absorption; format: physicochemical
Method: The solution is then added to UV/VIS quartz tube with a path length of 1 cm. The background is normalized to chloroform. The samples are tested in the wavelength range of 200 to 800 nm at a medium scan rate of 2 nm, and a slit width of 0.5 nm. Data are collected in absorbance values (A) against wavelength (nm).

[2] = tested on: 3T3 fibroblasts or HeLa cell lines; assay: In vitro biocompatibility Alamar Blue assay; format: cell-based; conditions: 48 hours of incubation; all concentrations (0.01-1 mM)
Method: Cells seeded in wells (5 replicates for each group) with 100 μl DMEM media (10% FBS, 1% antibiotic). Incubated for 24 and 48 h, in a 96-well plate, 10000 cells/well, using 3T3 fibroblasts or HeLa cell lines. After 24 h, DMEM media replaced with 100 μl DMEM with dissolved test compounds (Test compounds dissolved in DMEM media to obtain final conc. of 1, 0.5, 0.1, 0.01 mM). After 24 hours of incubation, 10 μl resazurin solution (0.015%) dissolved in PBS was added to the wells followed by incubation for 3 hours. Readings taken post 24 hours and 48 hours of sample addition. (Ex-570 nm, Em-590 nm), Controls: Blank media without cells, Media with cells, Readings for (Blank media without cells) subtracted from all groups, Readings normalized against (media with cells group—100%)

[3] = Photorheometry of CaproGlu binary formulations (365 nm UVA, 10 J·cm^−2); format: physicochemical; conditions: neat component of Table 3; steady state viscosity, shear rate 10 sec^−1
Method: Rheometry was carried out on an Anton Paar MCR 102 rheometer (Anton Paar, Singapore) with a custom photocuring setup as described previously (Djordjevic, I. et al., Biomaterials 2020, 260, 120215). A PP10 parallel plate stainless steel probe was used, with a 0.2 mm measuring gap. Steady State Viscosity was measured first (shear rate 10 sec^−1), followed by a dynamic oscillatory strain measurement during photocuring (UV ON at 30 seconds, off at 2 minutes 10 seconds, 1% shear, frequency 10 Hz, amplitude 1%), then an Amplitude Sweep (shear 1-1000-%, angular frequency 10 rad-sec^−1). In reporting of G′ and G″, a smoothing function was applied. The UV lamp used was a Thor Labs 365 nm SOLIS High-Power LED connected to a DC2200 LED Driver set to constant current mode. […]
Covalent crosslinking was monitored via complex shear modulus (G*), which was measured on a custom photorheometer fitted with a narrow-band 365 nm UV diode and normal-force load cell. […] Dynamic viscosity, G′ (storage modulus), G″ (loss modulus), and normal force (caused by expansion/contraction of polymer matrix) were continually monitored and subsequently analysed for yield stress/strain with an amplitude sweep. Functional groups were qualitatively assessed before and after curing via ATR-FTIR spectroscopy to observe consumption. […]

[4] = Stability of PEGDA/PTHT mixtures with photoinitiator under indoor light; format: physicochemical; conditions: PEGDA+PTHT 2:1 binary mixture, 1 mol % initiator, no solvent
Method: Polyethylene glycol diacrylate (Mw˜575 Da), referred to as “PEGDA” further in text is used in all the experiments. PEGDA/PTHT samples are prepared by magnetic stirring of PEGDA and PTHT polymer blend (2:1 molar ratio) with diazirine photoinitiators (1 mol % DzOH or 1 mol % CG relative to the total number of mols of PEGDA in each sample). Samples with standard TPO photoinitiator (1 mol %) are used as controls. The mixing of compounds (PEGDA+PTHT) in binary mixture with photoinitiators (DzOH, CG and TPO) is completed without any solvent.

With `O=C(O)c1ccc(C2(C(F)(F)F)N=N2)cc1` [DzCOOH, 4-[3-(Trifluoromethyl)-3H-diazirin-3-yl]benzoic acid] the “absorbance above 400 nm” value ([1]; previous UV-Vis studies) was “does not have an absorbance above 400 nm”.
For `OCc1ccc(C2(C(F)(F)F)N=N2)cc1` [DzOH, 4-[3-(Trifluoromethyl)-3H-diazirin-3-yl]benzyl alcohol], the Cell viability [2] was “not significantly different from control”.
In the case of `O=C(CCS)OCC(COC(=O)CCS)(COC(=O)CCS)COC(=O)CCS` [PTHT, pentaerythritol tetrakis 3-mercaptopropionate], the viscosity [3] is reported as “[drawing 17] PTHT, Mw = 488.66 g · mol^-1, viscosity = 667 ± 49 mPa · s mPa·s”.
With `Cc1cc(C)c(C(=O)P(=O)(c2ccccc2)c2ccccc2)c(C)c1` [TPO, Diphenyl(2,4,6-trimethylbenzoyl)phosphine oxide] the molar absorption coefficient ([1]; @ 381 nm) was 520 cm^−1M^−1 and the “stability under indoor lighting” value [4] was “activated under indoor light; also recorded: unstable and prematurely crosslinked under fluorescent lights and white LED emitters”.
